{
  "source": "patent US7879913B2",
  "about": "(Catholic Healthcare West, priority 2005, dated 2011)",
  "key": {"human α4β2-nAChR": {"target": "T1, human α4β2-nAChR (Homo sapiens, UniProt P17787+P43681)", "T1 construct": "expressed in transfected cells; host or cells: SH-EP1 human epithelial cell line (SH-EP1-hα4β2)", "T1 sequence (P43681 29-627 limits assumed)": "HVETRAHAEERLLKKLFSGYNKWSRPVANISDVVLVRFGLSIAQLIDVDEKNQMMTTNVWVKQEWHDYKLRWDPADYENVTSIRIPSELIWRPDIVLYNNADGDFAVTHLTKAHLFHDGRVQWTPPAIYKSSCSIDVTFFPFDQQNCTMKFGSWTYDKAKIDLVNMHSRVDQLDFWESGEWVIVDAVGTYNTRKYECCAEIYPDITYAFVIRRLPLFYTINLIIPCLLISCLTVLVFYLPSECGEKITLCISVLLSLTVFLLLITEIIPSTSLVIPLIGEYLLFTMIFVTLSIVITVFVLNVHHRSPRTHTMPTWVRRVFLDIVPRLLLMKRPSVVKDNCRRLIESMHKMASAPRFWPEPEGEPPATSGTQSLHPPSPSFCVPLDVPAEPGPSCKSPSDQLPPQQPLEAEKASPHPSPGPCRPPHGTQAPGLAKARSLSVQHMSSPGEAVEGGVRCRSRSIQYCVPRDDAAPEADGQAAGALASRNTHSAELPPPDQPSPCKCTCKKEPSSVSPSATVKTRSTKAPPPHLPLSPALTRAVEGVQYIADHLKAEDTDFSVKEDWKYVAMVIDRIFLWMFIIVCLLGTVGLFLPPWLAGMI", "T1 sequence (P17787 26-502)": "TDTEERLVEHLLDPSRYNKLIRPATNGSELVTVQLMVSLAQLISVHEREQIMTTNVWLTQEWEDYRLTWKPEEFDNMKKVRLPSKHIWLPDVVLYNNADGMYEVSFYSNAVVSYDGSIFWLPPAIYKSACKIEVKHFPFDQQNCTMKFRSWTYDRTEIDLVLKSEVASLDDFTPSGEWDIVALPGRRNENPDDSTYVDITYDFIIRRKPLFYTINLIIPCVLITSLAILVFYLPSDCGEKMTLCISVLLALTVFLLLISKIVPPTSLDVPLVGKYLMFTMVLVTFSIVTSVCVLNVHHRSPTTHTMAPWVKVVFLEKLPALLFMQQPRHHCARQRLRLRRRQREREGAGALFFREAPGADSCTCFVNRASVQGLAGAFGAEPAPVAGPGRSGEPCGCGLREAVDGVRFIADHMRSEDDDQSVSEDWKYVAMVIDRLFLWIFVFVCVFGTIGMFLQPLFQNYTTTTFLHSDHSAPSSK", "experiment": "whole-cell voltage-clamp currents of heterologously expressed human α4β2-nAChR in SH-EP1 cells", "format": "cell-based", "settings": "for reduction of peak current amplitude after initial co-application of nicotine with IPT / peak amplitude of 3 μM nicotine-induced current, % of control / response to nicotine challenge after 15 min of IPT exposure, % of control: 3 μM IPT; for reduction of peak current amplitude after initial co-application of nicotine with IPT: 0 min", "text": "Heterologously expressed, human α4β2-nAChRs in cloned human epithelia cell (SH-EP1 cell line) were employed as a cellular model to test IPT's pharmacology. IPT acts as a potent and selective antagonist of α4-containing nAChR. IPT inhibits both peak and steady-state whole-cell current responses to nicotinic agonists and accelerates acute desensitization in a concentration-dependent manner while having long-lasting effects after washout. Its effects are enhanced by exposure to nAChR prior to agonist challenge.\nThe whole-cell traces of nicotinic responses with and without IPT are superimposed in the right traces. For these and all subsequent traces, current amplitude and time calibration bars are indicated, the holding potential (vH) was −60 mV unless indicated otherwise, and the duration of ligand exposure is indicated by the bars above the trace.\nIn this and all following figures, unless specifically mentioned, each column (or symbol) is the average from 4-6 cells tested, and vertical bars indicate±standard error."}, "human α4β4-nAChR": {"target": "human α4β4-nAChR (Homo sapiens, UniProt P30926+P43681)", "sequence (P43681 29-627 limits assumed)": "as the sequence (P43681 29-627 limits assumed) above", "sequence (P30926 22-498)": "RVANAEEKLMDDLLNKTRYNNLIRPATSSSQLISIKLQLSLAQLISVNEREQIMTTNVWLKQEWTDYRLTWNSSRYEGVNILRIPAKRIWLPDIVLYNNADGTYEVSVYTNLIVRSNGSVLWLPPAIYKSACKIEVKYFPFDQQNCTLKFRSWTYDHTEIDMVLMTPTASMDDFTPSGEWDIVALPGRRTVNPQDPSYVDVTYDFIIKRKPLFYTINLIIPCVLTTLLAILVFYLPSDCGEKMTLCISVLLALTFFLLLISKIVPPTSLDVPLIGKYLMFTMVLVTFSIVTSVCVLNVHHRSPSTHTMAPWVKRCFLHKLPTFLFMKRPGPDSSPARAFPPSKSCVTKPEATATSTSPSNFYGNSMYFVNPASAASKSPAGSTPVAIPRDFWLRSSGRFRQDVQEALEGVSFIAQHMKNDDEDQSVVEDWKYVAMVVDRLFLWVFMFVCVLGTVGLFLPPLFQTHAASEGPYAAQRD", "experiment": "whole-cell current responses of α4β4-nAChR", "format": "cell-based", "method": "(§1) FIG. 9 illustrates that IPT-mediated functional block persisted for α4β2- but not α4β4-nAChR after 3 min of drug washout.\n(§2) FIG. 9C depicts the IPT concentration (abscissa; log μM scale) dependence of inhibition of function (ordinate; peak whole-cell current responses normalized to those in the absence of IPT; mean±SE, n=6 cells) of human α4β2-(▪), α4β4-(◯), or α7-(▴) nAChR when IPT is co-applied with agonists."}, "human α7-nAChR": {"target": "human α7-nAChR (Homo sapiens, UniProt P36544)", "sequence (P36544 23-502)": "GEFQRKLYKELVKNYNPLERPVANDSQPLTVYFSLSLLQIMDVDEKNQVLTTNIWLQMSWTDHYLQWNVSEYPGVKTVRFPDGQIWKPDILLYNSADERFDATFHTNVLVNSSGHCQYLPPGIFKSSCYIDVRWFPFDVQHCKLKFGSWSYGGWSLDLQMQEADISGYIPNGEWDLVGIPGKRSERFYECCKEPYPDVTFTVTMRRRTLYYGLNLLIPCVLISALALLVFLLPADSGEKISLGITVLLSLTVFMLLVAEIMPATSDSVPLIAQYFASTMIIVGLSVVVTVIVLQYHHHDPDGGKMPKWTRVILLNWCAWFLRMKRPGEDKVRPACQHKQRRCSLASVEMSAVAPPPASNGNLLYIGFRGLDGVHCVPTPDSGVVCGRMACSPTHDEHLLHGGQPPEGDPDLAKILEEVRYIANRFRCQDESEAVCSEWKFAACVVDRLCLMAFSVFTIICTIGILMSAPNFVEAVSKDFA", "experiment": "whole-cell current responses of α7-nAChR to choline", "format": "cell-based", "method": "as §1, §2\nA double asterisk (**) represents p<0.01."}, "[1]": {"target": "α4β2-nAChR agonist binding sites (Homo sapiens, UniProt P17787+P43681)", "sequence (P43681 29-627 limits assumed)": "as the sequence (P43681 29-627 limits assumed) above", "sequence (P17787 26-502)": "as the sequence (P17787 26-502) above", "experiment": "3H-epibatidine radioligand binding assay"}, "native α4β2-nAChR": {"target": "T2, native α4β2-nAChR (Rattus norvegicus, UniProt P09483+P12390)", "T2 construct": "native expressed α4β2-nAChRs in single dopamine neurons acutely dissociated from rat VTA; from tissue; host or cells: dopamine neurons acutely dissociated from rat ventral tegmental area (VTA)", "T2 sequence (P09483 31-630)": "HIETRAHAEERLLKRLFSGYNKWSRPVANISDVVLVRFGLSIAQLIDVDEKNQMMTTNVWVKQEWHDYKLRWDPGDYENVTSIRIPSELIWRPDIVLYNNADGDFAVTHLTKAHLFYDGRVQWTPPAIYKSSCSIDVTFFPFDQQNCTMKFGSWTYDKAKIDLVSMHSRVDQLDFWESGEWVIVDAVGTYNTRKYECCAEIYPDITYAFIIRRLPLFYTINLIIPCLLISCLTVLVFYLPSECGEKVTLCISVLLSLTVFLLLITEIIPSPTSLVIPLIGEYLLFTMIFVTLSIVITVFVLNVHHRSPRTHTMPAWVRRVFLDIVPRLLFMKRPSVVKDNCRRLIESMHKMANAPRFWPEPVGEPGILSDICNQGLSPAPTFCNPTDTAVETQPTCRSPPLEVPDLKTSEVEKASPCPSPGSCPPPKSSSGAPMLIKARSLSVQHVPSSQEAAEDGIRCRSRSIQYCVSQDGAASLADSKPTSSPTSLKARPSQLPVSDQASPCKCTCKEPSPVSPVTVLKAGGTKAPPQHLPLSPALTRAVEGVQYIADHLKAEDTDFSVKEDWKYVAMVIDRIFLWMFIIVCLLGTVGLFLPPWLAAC", "T2 sequence (P12390 25-500)": "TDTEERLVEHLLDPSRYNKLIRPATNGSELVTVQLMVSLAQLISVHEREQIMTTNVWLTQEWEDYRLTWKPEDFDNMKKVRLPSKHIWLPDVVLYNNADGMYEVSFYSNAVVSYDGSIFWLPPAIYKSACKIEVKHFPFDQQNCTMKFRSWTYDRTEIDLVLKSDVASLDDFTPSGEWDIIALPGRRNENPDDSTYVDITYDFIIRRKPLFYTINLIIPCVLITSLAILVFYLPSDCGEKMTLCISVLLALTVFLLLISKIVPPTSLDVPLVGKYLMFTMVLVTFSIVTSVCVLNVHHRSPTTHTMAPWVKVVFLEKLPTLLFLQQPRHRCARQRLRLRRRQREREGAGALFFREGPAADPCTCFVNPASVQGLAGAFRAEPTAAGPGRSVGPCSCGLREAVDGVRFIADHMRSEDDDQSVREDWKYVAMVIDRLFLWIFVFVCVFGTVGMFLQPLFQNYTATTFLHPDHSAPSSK", "experiment": "RJR-2403-induced currents in single dopamine neurons acutely dissociated from rat VTA", "format": "cell-based", "settings": "VTA DA neurons; peak and steady-state currents", "text": "FIG. 10 illustrates how typical traces representing four VTA DA neurons responded to α4β2-nAChR selective agonist, RJR-2403 with (FIG. 10B) and without IPT (FIG. 10A). […] Finally, FIG. 10C summarizes the inhibition-efficacy relationship curves of IPT-induced inhibition in peak and steady-state currents."}, "[2]": {"system": "extracellular dopamine levels in the nucleus accumbens", "experiment": "microdialysis of extracellular dopamine in nucleus accumbens of acute nicotine-administered rats", "format": "in vivo, rat", "text": "Finally, the effects of IPT on the extracellular dopamine levels in the nucleus accumbens of acute nicotine-administered rats are illustrated by microdialysis."}, "[3]": {"settings": "3 μM IPT co-applied with 3 μM nicotine, n=6"}, "[4]": {"settings": "50 μM IPT, 3 μM nicotine, holding potential 0 mV"}, "[5]": {"settings": "50 μM IPT, 3 μM nicotine, holding potential −40 mV"}, "[6]": {"settings": "50 μM IPT, 3 μM nicotine, holding potential −80 mV"}},
  "note": "Where two headings read alike, the source gives them in different places.",
  "data": [
    {"smiles": "CC(C)NC(C)(C)C(C)C.Cl", "note": "[IPT, iptakalim hydrochloride]", "values": [
      {"measurement": "reduction of peak whole-cell current (Ip)", "setting": "human α4β2-nAChR; 3 μM IPT co-applied with 3 μM nicotine, VH −60 mV, n=6", "value": "20.85±2.69", "unit": "%"},
      {"measurement": "acceleration of rate of decay from peak to steady-state current", "setting": "human α4β2-nAChR; [3]", "value": "21.38±3.40", "unit": "%"},
      {"measurement": "reduction of ratio of steady-state to peak current (Is/Ip)", "setting": "human α4β2-nAChR; [3]", "value": "68.62±2.23", "unit": "%"},
      {"measurement": "reduction of peak current amplitude after initial co-application of nicotine with IPT", "setting": "human α4β2-nAChR; 3 μM nicotine, nicotine at start and end only (second value)", "value": "13.6±2.4", "unit": "%"},
      {"measurement": "reduction of peak current amplitude after initial co-application of nicotine with IPT", "setting": "human α4β2-nAChR; 3 μM nicotine, repetitive nicotine challenge protocol (first value)", "value": "16.8±6.1", "unit": "%"},
      {"measurement": "peak amplitude of 3 μM nicotine-induced current, % of control", "setting": "human α4β2-nAChR; 3 min pre-treatment ending before exposure to nicotine alone", "value": "81±7 % of control"},
      {"measurement": "peak amplitude of 3 μM nicotine-induced current, % of control", "setting": "human α4β2-nAChR; 3 min pre-treatment followed by continued co-application", "value": "62±4 % of control"},
      {"measurement": "response to nicotine challenge after 15 min of IPT exposure, % of control", "setting": "human α4β2-nAChR; after repeated nicotine challenges (4 sec at 3 min intervals)", "value": "11.9±1.7 % of control"},
      {"measurement": "peak amplitude of 3 μM nicotine-induced current, % of control", "setting": "human α4β2-nAChR; co-application with nicotine without pre-treatment", "value": "79±9 % of control"},
      {"measurement": "response to nicotine challenge after 15 min of IPT exposure, % of control", "setting": "human α4β2-nAChR; without repeated nicotine challenges", "value": "29.8±3.3 % of control"},
      {"measurement": "inhibition of α4β2-nAChR-mediated currents", "setting": "human α4β2-nAChR; 10 μM IPT, 3 min pre-treatment then co-application, 3 μM nicotine", "value": "70±11", "unit": "%"},
      {"measurement": "current decay constant, % of control", "setting": "human α4β2-nAChR; [4]", "value": "44±7.6 % of control"},
      {"measurement": "fractional inhibition of whole-cell peak current responses to nicotine", "setting": "human α4β2-nAChR; [4]", "value": "68.9±3.5", "unit": "%"},
      {"measurement": "current decay constant, % of control", "setting": "human α4β2-nAChR; [5]", "value": "30±1.1 % of control"},
      {"measurement": "fractional inhibition of whole-cell peak current responses to nicotine", "setting": "human α4β2-nAChR; [5]", "value": "76.4±2.6", "unit": "%"},
      {"measurement": "current decay constant, % of control", "setting": "human α4β2-nAChR; [6]", "value": "22±3.4 % of control"},
      {"measurement": "fractional inhibition of whole-cell peak current responses to nicotine", "setting": "human α4β2-nAChR; [6]", "value": "80.9±2.65", "unit": "%"},
      {"measurement": "persistence of functional block after 3 min of drug washout", "setting": "human α4β2-nAChR; 50 μM IPT, 3 μM nicotine", "value": "persisted"},
      {"measurement": "block of peak whole-cell currents", "setting": "human α4β2-nAChR; 50 μM IPT, agonist ACh 10 μM", "value": "65.81±1.49", "unit": "%"},
      {"measurement": "block of peak whole-cell currents", "setting": "human α4β2-nAChR; 50 μM IPT, agonist RJR-2403 3 μM", "value": "72.72±1.98", "unit": "%"},
      {"measurement": "block of responses to cytisine", "setting": "human α4β2-nAChR; 50 μM IPT, agonist cytisine 100 μM (maximally efficacious, partial agonist)", "value": "49.32±3.46", "unit": "%"},
      {"measurement": "block of peak whole-cell currents", "setting": "human α4β2-nAChR; 50 μM IPT, agonist nicotine 3 μM", "value": "76.37±2.56", "unit": "%"},
      {"measurement": "IC50", "setting": "human α4β2-nAChR; co-application condition, 3 μM nicotine, n=6, read-out: IC50 for inhibition of whole-cell steady-state current", "value": 1, "unit": "µM"},
      {"measurement": "IC50", "setting": "human α4β2-nAChR; co-application with agonist, without pretreatment, 3 μM nicotine, read-out: IC50 for inhibition of peak whole-cell responses", "value": 31, "unit": "µM"},
      {"measurement": "half-time for recovery of peak current response to nicotine challenge", "setting": "human α4β2-nAChR; washout after 4 sec exposure to 50 μM IPT, 3 μM nicotine", "value": "~15", "unit": "min"},
      {"measurement": "IC50", "setting": "human α4β2-nAChR; with 3 min pretreatment with IPT, 3 μM nicotine, read-out: IC50 for inhibition of peak whole-cell responses", "value": 5, "unit": "µM"},
      {"measurement": "persistence of functional block after 3 min of drug washout", "setting": "human α4β4-nAChR; 50 μM IPT, 1 μM nicotine", "value": "not"},
      {"measurement": "IC50", "setting": "human α4β4-nAChR; co-application with agonist (1 μM nicotine), peak current, read-out: IC50 for functional inhibition", "value": 23, "unit": "µM"},
      {"measurement": "inhibition of α7-nAChR-mediated currents", "setting": "human α7-nAChR; 10 μM IPT, 3 min pre-treatment then co-application, 1 mM choline", "value": "3.5±0.4", "unit": "%"},
      {"measurement": "IC50", "setting": "human α7-nAChR; co-application with agonist (choline), peak current, read-out: IC50 for α7-nAChR blockade", "value": "> 1000", "unit": "µM"},
      {"measurement": "block of 3H-epibatidine binding", "setting": "[1]; concentrations up to 1 mM", "value": "failed to block radioligand binding"},
      {"measurement": "effect on RJR-2403-induced current response", "setting": "native α4β2-nAChR", "value": "inhibited RJR-2403-induced current response in a concentration-dependent manner"},
      {"measurement": "effect on nicotine-induced elevation of dopamine in the nucleus accumbens", "setting": "[2]; local perfusion with IPT 1-100 μM from microdialysis probe after s.c. nicotine 0.5 mg/kg, significant 20-80 minutes after nicotine", "value": "tended to decrease nicotine-induced elevation of dopamine"}
    ]},
    {"smiles": "CNC1(C)C2CCC(C2)C1(C)C", "note": "(stereo not drawn) [mecamylamine]", "values": [
      {"measurement": "block of 3H-epibatidine binding", "setting": "[1]; concentrations up to 1 mM", "value": "failed to block radioligand binding"}
    ]},
    {"smiles": "CN1CCCC1c1cccnc1", "note": "(stereo not drawn) [nicotine, reference compound]", "values": [
      {"measurement": "block of 3H-epibatidine binding", "setting": "[1]; with previously reported IC50 values", "value": "blocked"},
      {"measurement": "increase in dopamine levels versus final sample prior to nicotine administration", "setting": "[2]; subcutaneous nicotine 0.5 mg/kg, control group", "value": 100, "unit": "%"}
    ]}
  ]
}
